US7271187B2, “Compositions and methods for promoting tissue regeneration” (priority 2000, dated 2007)

What was measured:
[1] = system: compressive injuries to the spinal cords of rats; assay: Compressive spinal cord injury, closure of cavities; format: in vivo, rat; conditions: compound in a saline vehicle; vs untreated or saline treated rats
Excerpt: In another study, cavities are induced by compressive injuries to the spinal cords of rats. In the study, rats are either untreated, treated with a saline vehicle, or treated with N-[4-[(4-fluorophenyl)sulfonyl]phenyl]acetamide in a saline vehicle.

[2] = system: spinal cord of an injured recipient animal; assay: Bone marrow cell implantation at spinal cord injury site with BrdU labelling; format: in vivo, rat; conditions: 12 weeks after implantation of bone marrow cells from orally treated donor
Description: In preferred embodiments, the invention relates to regenerating nerve tissue in vivo. Methods of the invention include administering a therapeutically effective dose of a composition of the invention to a first mammal in need of neural regeneration. In some embodiments, a compound of Formula (I) or Formula (II) is administered, preferably orally administered, to a mammal in need of tissue regeneration, preferably neural tissue regeneration. In some embodiments, methods of the invention comprise administering a compound of Formula (I) or Formula (II) to a first mammal, harvesting cells from the first mammal after administration of the compound and subsequently delivering the harvested cells locally at a site where increased neural expression or increased neural regeneration is needed, wherein the injury site can be in the first mammal or in a second mammal. In some embodiments, the compositions of the invention can be administered intralesionally. Preferably, the harvested cells are from any type of stem cell, for example bone marrow cells. For example, bone marrow cells can be collected from a donor animal (e.g., a rat) within two weeks, preferably within three to seven days, after oral administration of N-[4-[(4-fluorophenyl)sulfonyl]phenyl]acetamide in a pharmaceutically acceptable carrier to the donor animal. […]

[3] = system: mixed embryonic day 18 (E18) rat neural cultures; assay: Embryonic day 18 rat cortical culture, glutamate-killed neurons, immunostaining for neuronal markers; format: cell-based
Excerpt: The method of the invention is exemplified by a first embodiment wherein administration of a single in vitro dose of N-[4-[(4-fluorophenyl)sulfonyl]phenyl]-acetamide, a compound according to Formula (II), to a population of mixed embryonic day 18 (“E18”) rat neural cultures without living neurons results in a protein expression pattern within the culture that is indicative of development of neuronal cells from progenitor cells. The embryonic neural cultures are first subjected to glutamate excitotoxic exposure sufficient to result in neuronal cell death prior to administration of the compound. Cultures obtained from E18 rat embryos are allowed to mature in vitro for 10 days at which time they are treated with […] glutamate to kill the neurons. Eight days later, cultures are treated with a range of doses of the compound N-[4-[(4-fluorophenyl)sulfonyl]phenyl]acetamide from 0.01 μg/ml to 100 μg/ml. In comparing control cultures and drug treated cultures, an antigenic marker for neuronal progenitor cells, e-NCAM (as detected by immunohistochemical methods), is elevated one week after treatment of the culture with N-[4-[(4-fluorophenyl)sulfonyl]phenyl]-acetamide. […] In contrast, few cells in untreated cultures are observed expressing MAP-II immunoreactivity at 3 weeks post-treatment. […] In control cultures, few cells are observed expressing intense MAP-II and beta-tubulin immunoreactivity. […] This expression pattern represents the normal sequence of events as neuronal cells develop from progenitor cells.
CNS tissue was harvested from embryonic day 18 (E-18) rat pups (Taconic Labs) using sterile technique and was stored in ice cold Hank's Balanced Salt Solution (HBSS-Gibco). Brains were removed from the cranium of 10 embryos, and the meninges removed to expose the underlying cortex. Cortex was isolated from the rest of the brain and stored in ice cold HBSS. After all material was collected, the tissue was minced and trypsinized using 0.1% trypsin (Sigma) for 30 minutes at 37° C. Trypsin action was inhibited by adding 0.5 mg/ml soybean trypsin inhibitor (Gibco). Tissue was rinsed with HBSS and triturated using a flame narrowed Pasteur pipette coated with fetal bovine serum (FBS—Media Tech).
Dissociated cells were counted and plated into 24 well cluster plates in DMEM (MediaTech) plus 10% FBS (Media Tech) at a density of 5×10^5 cells per well. Twenty-four well cluster plates were coated with poly-D-lysine prior to adding cells. Cultures were maintained for 10 days in vitro using a 3-4 day feeding schedule where half the media was removed and replaced with fresh media.
On in vitro day (IVD) 10, glutamate (Gibco) (110 μl of 20 mM added to wells that contained 1 ml of media) was add to all wells except control wells to a final concentration 2 mM. Control wells were fed an equal amount of media minus the L-glutamate. Cultures were maintained for an additional 9 days using a 3-4 feeding schedule. On IVD-18, media was removed and replaced with Neurobasal (Gibco)+B27 supplements (Gibco) and L-glutamine (Media Tech). The next day, IVD-19, N-[4-[(4-fluorophenyl)sulfonyl]phenyl]acetamide dissolved in 2-hydroxypropyl-β-cyclodextrin (Sigma) was added to cultures such that the final concentrations of the compound were either 100 μg/ml, 10 μg/ml, 1 μg/ml and 0.1 μg/ml or 10 μg/ml, 1 μg/ml 0.1 μg/ml and 0.01 μg/ml. Two sets of control wells were included in each experiment. One set of glutamate treated wells received an equal dose of 2-hydroxypropyl-β-cyclodextrin but without N-[4-[(4-fluorophenyl)sulfonyl]phenyl]acetamide. […] After it became apparent that the optimal dose was approximately 0.1 μg/ml to 1 μg/ml N-[4-[(4-fluorophenyl)sulfonyl]phenyl]acetamide, the concentration of drug added to the control wells was reduced to 1 μg/ml.
Cultures were maintained for up to an additional 10 weeks. […]

[4] = 4 weeks post treatment, vs control cultures

SMILES: CC(=O)Nc1ccc(S(=O)(=O)c2ccc(F)cc2)cc1 [N-[4-[(4-fluorophenyl)sulfonyl]phenyl]acetamide]
- extent of closure of the cavity in the spinal cord [1]: most extensive closure of the cavity
- BrdU incorporation and expression of nestin, beta-tubulin and GFAP in spinal cord tissue [2]: shows incorporation of BrdU in cell nuclei, as well as expression of nestin, beta-tubulin and GFAP
- MAP-II expression ([3]; 3 weeks post treatment, vs untreated cultures): Low levels of MAP-II expression are also detected at 3 weeks post treatment in a large number of cells
- MAP-II immunoreactivity [3, 4]: a large number of cells treated with the compound can be observed expressing intense MAP-II and beta-tubulin immunoreactivity
- beta-tubulin immunoreactivity [3, 4]: a large number of cells treated with the compound can be observed expressing intense MAP-II and beta-tubulin immunoreactivity
- phosphorylated neurofilament protein (NF-PO4) immunoreactivity ([3]; 6 weeks post treatment, vs untreated cultures): can be observed in numerous neurites
- e-NCAM expression (immunohistochemical) ([3]; one week after treatment, drug treated vs control cultures, 0.01 μg/ml to 100 μg/ml): elevated
- expression of Low affinity Neuron Growth Factor Receptor ([3]; ten weeks post treatment): show expression of the Low affinity Neuron Growth Factor Receptor
- beta-tubulin expression ([3]; three weeks post treatment, vs untreated control cultures): elevated levels of beta-tubulin expression are detected in large numbers of cells
